Experimental data as given in US12324893B2, “Triptan microporation delivery system” (PassPort Technologies, Inc., priority 2019, dated 2025).

Key:
[1] = Effect of filament density, poration energy and filament array size on PK profile (Examples 7-9); design: species or system guinea pigs; details: guinea pig, in vivo, topical or ocular
Method: (§1) This example describes various effects of filament density. To investigate the effect of filament density on PK profile and side effects (pain by poration and skin irritation), these studies were conducted. The filament density mainly affects the area to be utilized for the transfer of body fluid and ingredients in between skin and patch. The range of filament density was 100 filaments/cm^2 to 400 filaments/cm^2, and the poration energy was from 3 to 4 mJ/filament.
(§2) This example describes various effects to heating energy. The poration energy is related to the pore shape such as depth and width.
(§3) This example describes the selection of a desirable filament array size. Assuming the higher dose than 2 mg dose with the conditions 400 filaments/cm^2 filament density and 4 or 5 mJ/filament energy, filament array size may need to be made bigger. The range of dose was 0.5 to 4 mg, and the range of filament array size was 1.0 to 2.0 cm^2.

skin = assay: Skin irritation at different poration conditions (Examples 7-9); assay type: in vivo, guinea pigs
Method: A skin irritation examination was performed following the patch removal. The skin irritation examination scale was an assessment of the skin directly under the matrix.
as §1, §2, §3

[2] = 2 mg, Table 15 # 1: 400 filaments/cm^2, 2 mJ/filament, area 1.0 cm^2, patch 2.00 mg Zolmitriptan
[3] = 2 mg, Table 15 # 2: 400 filaments/cm^2, 3 mJ/filament, area 1.0 cm^2, patch 2.00 mg Zolmitriptan
[4] = 2 mg, Table 15 # 3: 400 filaments/cm^2, 4 mJ/filament, area 1.0 cm^2, patch 2.00 mg Zolmitriptan
[5] = 2 mg, Table 15 # 4: 400 filaments/cm^2, 5 mJ/filament, area 1.0 cm^2, patch 2.00 mg Zolmitriptan
[6] = 2 mg, Table 17 # 2: dose 2.00 mg, 4 mJ/filament, filament array area 1.0 cm^2, 400 filaments/cm^2
[7] = 3 mg, Table 17 # 3: dose 3.00 mg, 4 mJ/filament, filament array area 1.0 cm^2, 400 filaments/cm^2
[8] = 4 mg, Table 17 # 4: dose 4.00 mg, 4 mJ/filament, filament array area 1.5 cm^2, 400 filaments/cm^2
[9] = 4 mg, Table 17 # 5: dose 4.00 mg, 4 mJ/filament, filament array area 2.0 cm^2, 400 filaments/cm^2
[10] = 4 mg, Table 17 # 6: dose 4.00 mg, 5 mJ/filament, filament array area 1.5 cm^2, 400 filaments/cm^2
[11] = Table 13 # 1: 100 filaments/cm^2, 3 mJ/filament, 1.0 cm^2, 2.00 mg patch
[12] = Table 13 # 2: 200 filaments/cm^2, 3 mJ/filament, 1.0 cm^2, 2.00 mg patch
[13] = Table 13 # 3: 400 filaments/cm^2, 3 mJ/filament, 1.0 cm^2, 2.00 mg patch
[14] = Table 13 # 4: 100 filaments/cm^2, 4 mJ/filament, 1.0 cm^2, 2.00 mg patch
[15] = Table 13 # 5: 200 filaments/cm^2, 4 mJ/filament, 1.0 cm^2, 2.00 mg patch
[16] = Table 13 # 6: 400 filaments/cm^2, 4 mJ/filament, 1.0 cm^2, 2.00 mg patch
[17] = Table 15 # 1: 400 filaments/cm^2, 2 mJ/filament, 1.0 cm^2, 2.00 mg patch
[18] = Table 15 # 2: 400 filaments/cm^2, 3 mJ/filament, 1.0 cm^2, 2.00 mg patch
[19] = Table 15 # 3: 400 filaments/cm^2, 4 mJ/filament, 1.0 cm^2, 2.00 mg patch
[20] = Table 15 # 4: 400 filaments/cm^2, 5 mJ/filament, 1.0 cm^2, 2.00 mg patch
[21] = Table 17 #1: dose 0.50 mg, 4 mJ/filament, 1.0 cm^2, 400 filaments/cm^2
[22] = Table 17 # 2: dose 2.00 mg, 4 mJ/filament, 1.0 cm^2, 400 filaments/cm^2
[23] = Table 17 # 3: dose 3.00 mg, 4 mJ/filament, 1.0 cm^2, 400 filaments/cm^2
[24] = Table 17 # 5: dose 4.00 mg, 4 mJ/filament, 2.0 cm^2, 400 filaments/cm^2
[25] = Table 17 # 6: dose 4.00 mg, 5 mJ/filament, 1.5 cm^2, 400 filaments/cm^2

Molecule CN(C)CCc1c[nH]c2ccc(C[C@H]3COC(=O)N3)cc12 [Zolmitriptan] has an AUC [1, 2] of 1490 ± 206 ng·h/mL, a Cmax [1, 2] of 484 ± 130 ng/mL and a Tmax [1, 2] of 2.33 ± 0.83 h. The AUC [1, 3] was 1750 ± 116 ng·h/mL, the Cmax [1, 3] was 487 ± 63 ng/mL and the Tmax [1, 3] was 1.63 ± 0.13 h. It also gave an AUC [1, 4] of 2100 ± 275 ng·h/mL, a Cmax [1, 4] of 896 ± 191 ng/mL and a Tmax [1, 4] of 1.06 ± 0.16 h. For the same molecule, the AUC [1, 5] was 1970 ± 108 ng·h/mL, the Cmax [1, 5] was 752 ± 89 ng/mL and the Tmax [1, 5] was 1.33 ± 0.33 h. The AUC [1, 6] was 2100 ± 275 ng·h/mL, the Cmax [1, 6] was 896 ± 191 ng/mL and the Tmax [1, 6] was 1.06 ± 0.16 h. For the same molecule, the AUC [1, 7] was 2350 ± 152 ng·h/mL, the Cmax [1, 7] was 756 ± 115 ng/mL and the Tmax [1, 7] was 1.63 ± 0.13 h. For the same molecule, the AUC [1, 8] was 3660 ± 189 ng·h/mL, the Cmax [1, 8] was 1310 ± 129 ng/mL and the Tmax [1, 8] was 1.33 ± 0.17 h. The AUC [1, 9] was 4310 ± 315 ng·h/mL, the Cmax [1, 9] was 2200 ± 358 ng/mL and the Tmax [1, 9] was 1.25 ± 0.14 h. It also gave an AUC [1, 10] of 4030 ± 506 ng·h/mL, a Cmax [1, 10] of 1710 ± 185 ng/mL and a Tmax [1, 10] of 0.75 ± 0.14 h. For the same molecule, the “Skin irritation relief ± SD (Days to recover to score 1)” value (shortened to “Skin irritation relief ± SD”) (skin; [11]) was 0.0 ± 0.0 days, the “Skin irritation ± SD (Just after patch removal)” value (shortened to “Skin irritation ± SD”) (skin; [11]) was 0.8 ± 0.3 and the “Skin irritation relief ± SD” value (skin; [12]) was 1.8 ± 0.8 days. For the same molecule, the “Skin irritation ± SD” value (skin; [12]) was 2.2 ± 0.4, the “Skin irritation relief ± SD” value (skin; [13]) was 2.8 ± 1.3 days and the “Skin irritation ± SD” value (skin; [13]) was 1.9 ± 0.3. The “Skin irritation relief ± SD” value (skin; [14]) was 1.8 ± 0.5 days, the “Skin irritation ± SD” value (skin; [14]) was 1.6 ± 0.3 and the “Skin irritation relief ± SD” value (skin; [15]) was 3.0 ± 1.9 days. The “Skin irritation ± SD” value (skin; [15]) was 2.1 ± 0.7, the “Skin irritation relief ± SD” value (skin; [16]) was 3.2 ± 0.8 days and the “Skin irritation ± SD” value (skin; [16]) was 2.1 ± 0.3. The “Skin irritation relief ± SD” value (skin; [17]) was 2.3 ± 1.2 days, the “Skin irritation ± SD” value (skin; [17]) was 1.8 ± 0.3 and the “Skin irritation relief ± SD” value (skin; [18]) was 2.8 ± 1.3 days. For the same molecule, the “Skin irritation ± SD” value (skin; [18]) was 1.9 ± 0.3, the “Skin irritation relief ± SD” value (skin; [19]) was 3.2 ± 0.8 days and the “Skin irritation ± SD” value (skin; [19]) was 2.1 ± 0.3. The “Skin irritation relief ± SD” value (skin; [20]) was 2.6 ± 1.7 days, the “Skin irritation ± SD” value (skin; [20]) was 2.3 ± 0.3 and the “Skin irritation relief ± SD” value (skin; [21]) was 2.5 ± 1.0 days. For the same molecule, the “Skin irritation ± SD” value (skin; [21]) was 1.6 ± 0.5, the “Skin irritation relief ± SD” value (skin; [22]) was 3.2 ± 0.8 days and the “Skin irritation ± SD” value (skin; [22]) was 2.1 ± 0.3. For the same molecule, the “Skin irritation relief ± SD” value (skin; [23]) was 3.0 ± 0.5 days, the “Skin irritation ± SD” value (skin; [23]) was 2.0 ± 0.0 and the “Skin irritation ± SD” value (skin; Table 17 # 4: dose 4.00 mg, 4 mJ/filament, 1.5 cm^2, 400 filaments/cm^2) was 2.1 ± 0.3. For the same molecule, the “Skin irritation relief ± SD” value (skin; [24]) was 4.3 ± 0.9 days, the “Skin irritation ± SD” value (skin; [24]) was 2.0 ± 0.0 and the “Skin irritation relief ± SD” value (skin; [25]) was 5.5 ± 1.9 days. For the same molecule, the “Skin irritation ± SD” value (skin; [25]) was 1.9 ± 0.3.
